Data on twelve compounds can be found in PubChem BioAssay (NCI).

Test systems include SNB-75 CNS; HT29 colon; MCF7 breast; SF-539 CNS; SNB-19 CNS; CCRF-CEM leukemia; NCI-H460 lung; HCT-15 colon; OVCAR-4 ovarian; OVCAR-3 ovarian.
What all share (assay): inhibition of tumour cell growth, NCI panel, 48 h

Each structure is given as a SMILES string. Where “and” joins values, the source holds several entries; their conditions need not be identical. Equal entries are not always repeated.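 The compound was tested at five concentrations on cells cultured in 96-well plates, with a 48-hour exposure period. GI50 marks 50% less growth. TGI marks complete inhibition of growth.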

`CCN1CCN=c2c3cc(OC)ccc3n3cnc4ccc1c2c43`: the TGI in the assay with SNB-75 CNS came to 1.4 µM; in the assay with HT29 colon it was 1.01 µM; with MCF7 breast it was 0.993 µM; in the assay with SF-539 CNS, 0.413 µM; with SNB-19 CNS, 1.95 µM; with CCRF-CEM leukemia, 0.747 µM. Also, the TGI came to 0.308 µM in the assay on NCI-H460 lung, 0.432 µM in the assay on HCT-15 colon, 1.86 µM in the assay on OVCAR-4 ovarian and 0.525 µM in the assay with OVCAR-3 ovarian.
As to `Cn1cc(C2=C(c3cn(C)c4cc(C(N)=O)ccc34)C(=O)NC2=O)c2ccccc21`, the GI50 with SNB-75 CNS was 0.447 µM; with HT29 colon, 0.924 µM; in the assay on MCF7 breast, 0.949 µM; with SF-539 CNS it was 0.791 µM; with SNB-19 CNS, 2.15 µM; in the assay with CCRF-CEM leukemia, 0.951 µM. Further, the GI50 in the assay on NCI-H460 lung is 0.854 µM; with HCT-15 colon it was 1.19 µM; in the assay on OVCAR-4 ovarian, 4.91 µM; with OVCAR-3 ovarian, 0.608 µM. Moreover, the TGI in the assay with SNB-75 CNS was above 7.9 µM; with HT29 colon, above 13.5 µM; in the assay with MCF7 breast it was above 25 µM; with SF-539 CNS, 4.24 µM; in the assay on SNB-19 CNS it was above 25 µM; in the assay with CCRF-CEM leukemia, above 25 µM. Further, the TGI in the assay with NCI-H460 lung was above 9.8 µM; with HCT-15 colon it was above 25 µM; with OVCAR-4 ovarian, above 25 µM; with OVCAR-3 ovarian, 1.57 µM.
In the case of `Cc1cn2c(/C=C3\C(=O)Nc4ccc(O)cc43)c(-c3ccc(Cl)cc3)nc2s1`, the GI50 in the assay with SNB-75 CNS is 6.27 µM; in the assay on HT29 colon, 18.1 µM; in the assay with MCF7 breast, 14.2 µM; with SF-539 CNS, 17.5 µM; with SNB-19 CNS, 15.2 µM; in the assay on CCRF-CEM leukemia, 29.4 µM. In addition, the GI50 in the assay with NCI-H460 lung was 15.5 µM; in the assay on HCT-15 colon it was 21.4 µM; in the assay on OVCAR-4 ovarian it was 7.31 µM; in the assay on OVCAR-3 ovarian it was 16.9 µM. The TGI with SNB-75 CNS is 23.7 µM; with HT29 colon it was 56.2 µM; with MCF7 breast, 33.8 µM; in the assay on SF-539 CNS, 33.9 µM; in the assay on SNB-19 CNS it was 39.1 µM; in the assay on CCRF-CEM leukemia it was above 100 µM. Moreover, the TGI in the assay with NCI-H460 lung is 45.3 µM; in the assay on HCT-15 colon it was above 100 µM; with OVCAR-4 ovarian it was 27.8 µM; in the assay with OVCAR-3 ovarian, 38.3 µM.
`O=C(c1c(F)ccc(NS(=O)(=O)N2CC[C@@H](F)C2)c1F)c1c[nH]c2ncc(-c3cnc(C4CC4)nc3)cc12`: the GI50 in the assay on SNB-75 CNS is 1.77 µM and 2.17 µM; with HT29 colon, 0.0124 µM and 0.0118 µM; with MCF7 breast, > 9.13 µM and 10.1 µM; with SF-539 CNS, 6.74 µM and 6.17 µM; with SNB-19 CNS, > 10 µM and 9.77 µM; with CCRF-CEM leukemia, 6.52 µM and 7.64 µM. Besides, the GI50 in the assay on NCI-H460 lung was 4.25 µM and 4.67 µM; with HCT-15 colon it was 5.69 µM and 5.21 µM; in the assay with OVCAR-4 ovarian, 6.02 µM and 4.39 µM; in the assay on OVCAR-3 ovarian, > 8.35 µM and 6.04 µM. Besides, the TGI was > 10 µM and 12.8 µM in the assay on SNB-75 CNS; > 10 µM and 12.4 µM in the assay on HT29 colon; > 10 µM and 44.5 µM in the assay on MCF7 breast; > 10 µM and 23.7 µM in the assay with SF-539 CNS; above 85.4 µM with SNB-19 CNS; above 100 µM with CCRF-CEM leukemia. Further, the TGI with NCI-H460 lung is > 10 µM and 26.3 µM; in the assay with HCT-15 colon, > 10 µM and 40.6 µM; in the assay on OVCAR-4 ovarian it was above 69.7 µM; with OVCAR-3 ovarian it was > 10 µM and 57.4 µM.
`Cc1ccc(/C=C/c2c(C(=O)/C=C/c3ccc(C(F)(F)F)cc3)c(C)nc3ccccc23)cc1`: the GI50 is 1.23 µM in the assay on SNB-75 CNS; 0.674 µM in the assay with HT29 colon; 0.557 µM in the assay with MCF7 breast; 1.79 µM with SF-539 CNS; 1.55 µM with SNB-19 CNS; 0.411 µM in the assay on CCRF-CEM leukemia. Also, the GI50 with NCI-H460 lung is 1.53 µM; with HCT-15 colon, 0.89 µM; in the assay with OVCAR-4 ovarian it was 1.61 µM; with OVCAR-3 ovarian, 1.55 µM. Also, the TGI with SNB-75 CNS is 2.48 µM; in the assay with HT29 colon, 4.57 µM; in the assay on MCF7 breast it was 2.3 µM; in the assay on SF-539 CNS, 3.26 µM; with SNB-19 CNS it was 2.88 µM; in the assay with CCRF-CEM leukemia, above 100 µM. The TGI with NCI-H460 lung worked out at 3.22 µM; in the assay with HCT-15 colon, 3.49 µM; with OVCAR-4 ovarian, 3.37 µM; with OVCAR-3 ovarian it was 3.82 µM.
Consider `CC(C)=CCc1cc(O)cc2c1OC(C=C(C)C)C1=C2C(=O)C2=C(NCCS2(=O)=O)C1=O` (stereo not given), for which the GI50 was 2.53 µM with SNB-75 CNS; 1.95 µM in the assay with HT29 colon; 1.21 µM in the assay with MCF7 breast; 2.58 µM in the assay on SF-539 CNS; 2.25 µM with SNB-19 CNS; 4.05 µM in the assay on CCRF-CEM leukemia. Further, the GI50 in the assay on NCI-H460 lung was 1.2 µM; with HCT-15 colon, 2.74 µM; with OVCAR-4 ovarian, 0.811 µM; in the assay with OVCAR-3 ovarian, 0.456 µM. Besides, the TGI in the assay on SNB-75 CNS is 4.86 µM; in the assay with HT29 colon, 7.24 µM; in the assay on MCF7 breast, 4.92 µM; in the assay with SF-539 CNS, 4.82 µM; in the assay with SNB-19 CNS, 4.44 µM; with CCRF-CEM leukemia, above 16.7 µM. The TGI in the assay with NCI-H460 lung was determined as 4.28 µM; in the assay on HCT-15 colon, 6.46 µM; in the assay with OVCAR-4 ovarian, 3.06 µM; in the assay on OVCAR-3 ovarian, 2.01 µM.
Take `C[C@H]1Oc2cc(cnc2N)-c2c(nn(C)c2C#N)CN(C)C(=O)c2ccc(F)cc21`: the GI50 in the assay with SNB-75 CNS is 21.7 µM; in the assay with HT29 colon, 5.76 µM; with MCF7 breast, 5.42 µM; in the assay with SF-539 CNS, 59.5 µM; with SNB-19 CNS, above 100 µM; in the assay on CCRF-CEM leukemia, above 100 µM. In addition, the GI50 in the assay on NCI-H460 lung was 28.2 µM; with HCT-15 colon, 47 µM; in the assay on OVCAR-4 ovarian, above 100 µM; in the assay on OVCAR-3 ovarian, above 89.3 µM. Also, the TGI in the assay with SNB-75 CNS, in the assay with HT29 colon, in the assay on MCF7 breast, with SF-539 CNS, in the assay with SNB-19 CNS and in the assay on CCRF-CEM leukemia was above 100 µM each time. Besides, the TGI in the assay with NCI-H460 lung, in the assay on HCT-15 colon, with OVCAR-4 ovarian and in the assay with OVCAR-3 ovarian was above 100 µM each time.
In the case of `O=C(c1ccc(Cl)cc1)c1cnc(Nc2ccccc2Cl)s1`, the TGI was 39.2 µM in the assay on SNB-75 CNS; above 100 µM with HT29 colon; 86.7 µM with MCF7 breast; 55.3 µM in the assay on SF-539 CNS; 51.3 µM in the assay with SNB-19 CNS; above 100 µM in the assay with CCRF-CEM leukemia. For the same compound, the TGI is above 59.8 µM in the assay on NCI-H460 lung, 51.6 µM with HCT-15 colon, 98.2 µM in the assay on OVCAR-4 ovarian and 40.9 µM with OVCAR-3 ovarian.
`Nc1c(C(=O)Nc2cccc(Br)c2)sc2nc3c(cc12)C(=O)CCC3`: the GI50 is 0.486 µM with SNB-75 CNS; 0.37 µM with HT29 colon; 0.373 µM in the assay with MCF7 breast; 0.448 µM in the assay with SF-539 CNS; 7.34 µM in the assay with SNB-19 CNS; 0.393 µM with CCRF-CEM leukemia. For the same compound, the GI50 was 0.373 µM in the assay on NCI-H460 lung, 0.468 µM in the assay with HCT-15 colon, 28.5 µM in the assay on OVCAR-4 ovarian and 0.359 µM in the assay with OVCAR-3 ovarian. The TGI with SNB-75 CNS was above 52.2 µM; in the assay with HT29 colon it was above 100 µM; in the assay with MCF7 breast, above 100 µM; in the assay on SF-539 CNS, above 100 µM; in the assay with SNB-19 CNS, above 100 µM; in the assay on CCRF-CEM leukemia, above 100 µM. The TGI with NCI-H460 lung is above 100 µM; with HCT-15 colon it was above 100 µM; in the assay on OVCAR-4 ovarian, above 100 µM; in the assay with OVCAR-3 ovarian it was above 46.5 µM.
`CC1(C)OCCn2c1nc1c(N3CCOCC3)nc(-c3cnc(N)nc3)nc12`: the GI50 was 0.0563 µM with SNB-75 CNS; 0.23 µM with HT29 colon; 0.077 µM in the assay with MCF7 breast; 0.316 µM in the assay with SF-539 CNS; 1.01 µM with SNB-19 CNS; 1.06 µM with CCRF-CEM leukemia. In addition, the GI50 in the assay on NCI-H460 lung was 0.187 µM; in the assay with HCT-15 colon it was 0.241 µM; in the assay with OVCAR-4 ovarian, 0.278 µM; with OVCAR-3 ovarian, 0.308 µM. Besides, the TGI is 0.817 µM with SNB-75 CNS; above 100 µM with HT29 colon; above 100 µM in the assay on MCF7 breast; 2.55 µM in the assay on SF-539 CNS; above 30.2 µM in the assay on SNB-19 CNS; above 100 µM in the assay with CCRF-CEM leukemia. For the same compound, the TGI was above 100 µM in the assay with NCI-H460 lung, above 100 µM with HCT-15 colon, 8.82 µM with OVCAR-4 ovarian and above 31.5 µM in the assay on OVCAR-3 ovarian.
`Cc1[nH]c2ccccc2c1-c1cc(-c2cc(-c3c(C)[nH]c4ccccc34)on2)no1`: the TGI in the assay with SNB-75 CNS is 66.8 µM; in the assay with HT29 colon, above 100 µM; in the assay with MCF7 breast it was above 100 µM; in the assay with SF-539 CNS it was above 100 µM; in the assay on SNB-19 CNS, above 100 µM; in the assay on CCRF-CEM leukemia, above 100 µM. Also, the TGI in the assay with NCI-H460 lung, in the assay with HCT-15 colon, in the assay with OVCAR-4 ovarian and in the assay with OVCAR-3 ovarian was above 100 µM in each case.
For `C=CCc1cccc(/C=N/NC(=O)CN2CCN(Cc3ccccc3)CC2)c1O`, the GI50 in the assay with SNB-75 CNS is 2.57 µM; in the assay on HT29 colon it was 3.24 µM; with MCF7 breast, 2.52 µM; in the assay with SF-539 CNS, 2.32 µM; in the assay on SNB-19 CNS, 5.36 µM; with CCRF-CEM leukemia, 0.656 µM. Moreover, the GI50 with NCI-H460 lung is 1.41 µM; in the assay with HCT-15 colon, 0.693 µM; in the assay with OVCAR-4 ovarian, 1.45 µM; in the assay on OVCAR-3 ovarian, 0.808 µM. For the same compound, the TGI in the assay on SNB-75 CNS turned out to be 12.9 µM; in the assay on HT29 colon, 13.7 µM; in the assay with MCF7 breast, 12.5 µM; with SF-539 CNS, 9.49 µM; in the assay with SNB-19 CNS it was 20.1 µM; with CCRF-CEM leukemia, 7.78 µM. The TGI amounted to 11.6 µM in the assay on NCI-H460 lung, 15.1 µM with HCT-15 colon, 11.8 µM with OVCAR-4 ovarian and 6.32 µM with OVCAR-3 ovarian.
